According to PubChem BioAssay (NCI):
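A five-concentration, 48-hour dose response in 96-well plates underlies each endpoint, interpolated linearly between surrounding concentrations. TGI is the concentration that stops growth completely.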

Columns and labels:
Assay in all cases: NCI-60 cell line screen, 48 h
[1] = test system: CAKI-1 renal
[2] = test system: MALME-3M melanoma
[3] = test system: HL-60(TB) leukemia
[4] = test system: SNB-19 CNS
[5] = test system: A498 renal
[6] = test system: NCI-H460 lung
[7] = test system: EKVX NSCLC
[8] = test system: MDA-MB-231 breast
[9] = test system: NCI-H226 lung
[10] = test system: DU-145 prostate
[11] = test system: SK-MEL-2 melanoma
[12] = test system: CCRF-CEM leukemia
[13] = test system: HS 578T breast
[14] = test system: SW-620 colon
[15] = test system: M14 melanoma
[16] = test system: OVCAR-4 ovarian
[17] = test system: OVCAR-3 ovarian
[18] = test system: SR leukemia
[19] = test system: SK-MEL-5 melanoma
[20] = test system: LOX IMVI melanoma
[21] = test system: HT29 colon
[22] = test system: NCI-H522 lung
[23] = test system: UACC-257 melanoma
[24] = test system: SNB-75 CNS
[25] = test system: RPMI-8226 leukemia
[26] = test system: OVCAR-5 ovarian
[27] = test system: SF-539 CNS
[28] = test system: OVCAR-8 ovarian
[29] = test system: NCI-H23 lung
[30] = test system: IGROV1 ovarian
[31] = test system: SF-295 CNS
[32] = test system: T-47D breast
[33] = test system: HCT-15 colon
[34] = test system: MCF7 breast
[35] = test system: UO-31 renal
[36] = test system: HOP-92 NSCLC
[37] = test system: MDA-N
[38] = test system: SK-MEL-28 melanoma
[39] = test system: TK-10 renal
[40] = test system: U251 CNS
[41] = test system: HCC-2998 colon
[42] = test system: KM12 colon
[43] = test system: COLO 205 colon
[44] = test system: HCT-116 colon
[45] = test system: MOLT-4 leukemia
[46] = test system: A549 NSCLC
[47] = test system: SK-OV-3 ovarian
[48] = test system: RXF 393 renal
[49] = test system: MDA-MB-435
[50] = test system: K-562 leukemia
[51] = test system: 786-0 renal
[52] = test system: BT-549 breast
[53] = test system: PC-3 prostate
[54] = test system: NCI/ADR-RES ovarian

COc1cc(CNC(=O)CCCCCCCCCCSC#N)ccc1O
TGI [1]: 36.8 µM | TGI [2]: > 100 µM | TGI [3]: 28.9 µM | TGI [4]: 48.3 µM | TGI [5]: 30.3 µM | TGI [6]: 38.2 µM | TGI [7]: 54.6 µM | TGI [8]: > 100 µM | TGI [9]: 37.8 µM | TGI [10]: 34.3 µM | TGI [11]: 28.8 µM | TGI [12]: 62.9 µM | TGI [13]: 40.9 µM | TGI [14]: 36.4 µM | TGI [15]: 21.5 µM | TGI [16]: 57.6 µM | TGI [17]: 26.2 µM | TGI [18]: 91.5 µM | TGI [19]: 19.4 µM | TGI [20]: 33 µM | TGI [21]: 87.2 µM | TGI [22]: 27.8 µM | TGI [23]: 41.1 µM | TGI [24]: 29.3 µM | TGI [25]: 59.5 µM | TGI [26]: 85.8 µM | TGI [27]: 37.1 µM | TGI [28]: 43.2 µM | TGI [29]: 43 µM | TGI [30]: 22.9 µM | TGI [31]: 37.4 µM | TGI [32]: 48.1 µM | TGI [33]: 23 µM | TGI [34]: 34.9 µM | TGI [35]: 21.9 µM | TGI [36]: 34.8 µM | TGI [37]: 31.3 µM | TGI [38]: 21.1 µM | TGI [39]: 44 µM | TGI [40]: 34.1 µM | TGI [41]: > 100 µM | TGI [42]: 19.3 µM | TGI [43]: 94.5 µM | TGI [44]: 28.1 µM | TGI [45]: 31.1 µM | TGI [46]: 42.1 µM | TGI [47]: 25.8 µM | TGI [48]: 21.9 µM | TGI [49]: 24.4 µM | TGI [50]: 88.5 µM | TGI [51]: 41.5 µM | TGI [52]: 44.6 µM | TGI [53]: 27.5 µM | TGI [54]: 59.7 µM
